ChEMBL document CHEMBL1201862, “PubChem BioAssay data set” (2004)
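Growth conditions: 96-well plates. Treatment: test compound, 48 hours, 5 concentrations. Analysis: linear interpolation between bracketing concentrations; unreached endpoints set to highest concentration. GI50: concentration for 50% inhibition of growth.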 Activity calls are given as the source filed them. Cut-off read from the data, not from the text of the source: active = GI50 up to about 1.1 µM and inactive = higher.

Tests used:
Assay in all cases: growth of human tumour cells (NCI), 48 h
786-0 = tested on: 786-0
CAKI-1 = tested on: CAKI-1
HOP-62 = tested on: HOP-62
LOX IMVI = tested on: LOX IMVI
MOLT-4 = tested on: MOLT-4
NCI-H226 = tested on: NCI-H226
NCI-H23 = tested on: NCI-H23
NCI-H460 = tested on: NCI-H460
OVCAR-5 = tested on: OVCAR-5
SF-539 = tested on: SF-539
SW-620 = tested on: SW-620
TK-10 = tested on: TK-10
UACC-257 = tested on: UACC-257
UACC-62 = tested on: UACC-62
UO-31 = tested on: UO-31
OVCAR-3 = tested on: OVCAR-3
RPMI-8226 = tested on: RPMI-8226
SNB-75 = tested on: SNB-75

Measured: GI50

COc1ccc(CC(=O)NCCc2ccc(OC)c(OC)c2)cc1Br
inactive: 786-0 > 100 µM | CAKI-1 > 100 µM | HOP-62 > 100 µM | LOX IMVI > 100 µM | MOLT-4 > 100 µM | NCI-H226 41.5 µM | NCI-H23 > 100 µM | NCI-H460 > 100 µM | OVCAR-5 57.1 µM | SF-539 > 100 µM | SW-620 > 100 µM | TK-10 > 100 µM | UACC-257 > 100 µM | UACC-62 62.1 µM | UO-31 > 100 µM

Clc1ccc(-c2c(C3=NCCN3)nnn2-c2ccccc2)cc1
inactive: 786-0 > 100 µM | CAKI-1 > 100 µM | HOP-62 > 100 µM | LOX IMVI > 100 µM | MOLT-4 80.2 µM | NCI-H226 > 100 µM | NCI-H23 > 100 µM | NCI-H460 > 100 µM | OVCAR-3 > 100 µM | OVCAR-5 > 100 µM | RPMI-8226 > 100 µM | SF-539 > 100 µM | SNB-75 > 100 µM | SW-620 > 100 µM | TK-10 51.8 µM | UACC-257 > 100 µM | UACC-62 > 100 µM | UO-31 82.4 µM

CCC(=O)CCC1=Nc2nnc(CCCCc3nnc4n3C(=O)C(CCC(=O)CC)=N4)n2C1=O
inactive: 786-0 > 100 µM | CAKI-1 > 100 µM | HOP-62 > 100 µM | LOX IMVI > 100 µM | MOLT-4 > 100 µM | NCI-H226 > 100 µM | NCI-H23 > 100 µM | NCI-H460 > 100 µM | OVCAR-3 > 100 µM | OVCAR-5 > 100 µM | RPMI-8226 > 100 µM | SF-539 > 100 µM | SNB-75 > 100 µM | SW-620 > 100 µM | TK-10 > 100 µM | UACC-257 > 100 µM | UACC-62 > 100 µM | UO-31 > 100 µM

Cc1cccc(NC2=NC(=O)C(CC(=O)Nc3cccc(C)c3C)S2)c1 (configuration not stated)
inactive: 786-0 > 100 µM | HOP-62 > 100 µM | LOX IMVI > 100 µM | MOLT-4 24.3 µM | NCI-H226 > 100 µM | NCI-H23 > 100 µM | NCI-H460 > 100 µM | OVCAR-3 > 100 µM | OVCAR-5 > 100 µM | RPMI-8226 85.9 µM | SNB-75 > 100 µM | SW-620 > 100 µM | TK-10 > 100 µM | UACC-257 > 100 µM | UACC-62 > 100 µM | UO-31 > 100 µM

CC(=O)Oc1c(-c2ccccc2)[nH]c2cc([N+](=O)[O-])c(/C(Cl)=C/c3ccccc3)cc12
inactive: 786-0 11.2 µM | CAKI-1 10.7 µM | HOP-62 25.9 µM | MOLT-4 2.84 µM | NCI-H226 4 µM | NCI-H23 2.47 µM | NCI-H460 4.62 µM | OVCAR-3 7.66 µM | OVCAR-5 4.22 µM | RPMI-8226 3.08 µM | SNB-75 15.6 µM | SW-620 8.89 µM | TK-10 19.8 µM | UACC-257 5.77 µM | UACC-62 4.24 µM | UO-31 8 µM

C=CCC1(CN(C)C)CC/C(=C\c2ccc(OC)cc2)C1=O (configuration not stated)
inactive: 786-0 65.8 µM | HOP-62 > 100 µM | LOX IMVI > 100 µM | MOLT-4 28.7 µM | NCI-H226 > 100 µM | NCI-H23 81.7 µM | NCI-H460 > 100 µM | OVCAR-3 > 100 µM | OVCAR-5 > 100 µM | RPMI-8226 23.9 µM | SF-539 > 100 µM | SNB-75 > 100 µM | SW-620 30.9 µM | TK-10 > 100 µM | UACC-257 38 µM | UACC-62 > 100 µM | UO-31 89.9 µM

C#CC[N+](CCO)(CCO)CCCCCCCCCCCCCCCCCC
inactive: CAKI-1 5.87 µM | HOP-62 11.4 µM | LOX IMVI 4.81 µM | MOLT-4 2.91 µM | NCI-H226 12.6 µM | NCI-H23 13.8 µM | NCI-H460 9.53 µM | OVCAR-3 13.5 µM | OVCAR-5 14.8 µM | RPMI-8226 3.27 µM | SF-539 11.4 µM | SNB-75 4.16 µM | SW-620 15.7 µM | UACC-257 15.8 µM | UACC-62 11 µM | UO-31 15.1 µM

O=C(Nc1cccc2ccccc12)Oc1ccccc1C1CCCCC1
inactive: HOP-62 19 µM | LOX IMVI 16.3 µM | MOLT-4 15.9 µM | NCI-H226 18.2 µM | NCI-H23 17.9 µM | NCI-H460 18.5 µM | OVCAR-3 18.6 µM | OVCAR-5 17.3 µM | RPMI-8226 30.3 µM | SF-539 17.5 µM | SNB-75 13.9 µM | SW-620 20.6 µM | TK-10 23 µM | UACC-257 15.5 µM | UACC-62 15.9 µM | UO-31 16.1 µM

CC(=O)OCC1OC(n2c(=S)n(-c3ccccc3)c(=O)c3cc(Br)ccc32)C(OC(C)=O)C1OC(C)=O (configuration not stated)
inactive: 786-0 > 100 µM | CAKI-1 11.6 µM | HOP-62 > 100 µM | LOX IMVI > 100 µM | MOLT-4 53.8 µM | NCI-H226 > 100 µM | NCI-H23 > 100 µM | NCI-H460 > 100 µM | OVCAR-3 > 100 µM | OVCAR-5 > 100 µM | RPMI-8226 51.3 µM | SF-539 > 100 µM | SNB-75 83.9 µM | SW-620 > 100 µM | UACC-257 > 100 µM | UACC-62 > 100 µM | UO-31 > 100 µM

NC(=O)C12CC3CC(CC(F)(C3)C1)C2
inactive: 786-0 > 100 µM | HOP-62 > 100 µM | LOX IMVI > 100 µM | MOLT-4 > 100 µM | NCI-H23 > 100 µM | NCI-H460 > 100 µM | OVCAR-3 > 100 µM | OVCAR-5 > 100 µM | RPMI-8226 > 100 µM | SF-539 > 100 µM | SNB-75 57.4 µM | SW-620 > 100 µM | TK-10 > 100 µM | UACC-257 > 100 µM | UACC-62 > 100 µM | UO-31 > 100 µM

O=C1OC(c2ccccc2)(c2ccccc2)CC1CN1CCOCC1 (configuration not stated)
inactive: 786-0 16.7 µM | HOP-62 > 100 µM | LOX IMVI 11.4 µM | MOLT-4 24.5 µM | NCI-H23 20.6 µM | NCI-H460 60.7 µM | OVCAR-3 15.6 µM | OVCAR-5 29.2 µM | SF-539 17.5 µM | SNB-75 13.9 µM | SW-620 5.07 µM | TK-10 14.2 µM | UACC-257 5.98 µM | UACC-62 25.6 µM | UO-31 29 µM

CC#COS(=O)(=O)c1ccc(C)cc1
inactive: 786-0 44.4 µM | CAKI-1 > 100 µM | HOP-62 > 100 µM | LOX IMVI 52 µM | MOLT-4 41.1 µM | NCI-H226 89.3 µM | NCI-H23 65.6 µM | NCI-H460 70.6 µM | OVCAR-3 60.5 µM | OVCAR-5 > 100 µM | RPMI-8226 23.1 µM | SF-539 > 100 µM | SW-620 42.7 µM | TK-10 > 100 µM | UACC-257 47.5 µM | UACC-62 32.4 µM | UO-31 57.1 µM

O=C(CC/C(CC(=O)c1ccc(Cl)cc1)=N/O)Nc1ccc(Cl)c(Cl)c1
inactive: 786-0 > 100 µM | CAKI-1 86.1 µM | HOP-62 > 100 µM | MOLT-4 53.2 µM | NCI-H226 > 100 µM | NCI-H23 45.5 µM | NCI-H460 > 100 µM | OVCAR-3 > 100 µM | OVCAR-5 24 µM | RPMI-8226 76.9 µM | SF-539 > 100 µM | SNB-75 26 µM | SW-620 > 100 µM | TK-10 > 100 µM | UACC-257 > 100 µM | UACC-62 18.3 µM | UO-31 98.4 µM

COc1cc2ccc(/C(C)=N/OC(C)=O)cc2cc1OC
inactive: 786-0 > 100 µM | LOX IMVI > 100 µM | MOLT-4 39.7 µM | NCI-H226 53.6 µM | NCI-H23 > 100 µM | NCI-H460 82.2 µM | OVCAR-3 34.1 µM | OVCAR-5 63.4 µM | RPMI-8226 84.7 µM | SF-539 77.1 µM | SNB-75 5.81 µM | SW-620 > 100 µM | TK-10 44.8 µM | UACC-257 > 100 µM | UACC-62 20.8 µM | UO-31 34.7 µM

C[N+](C)=c1nc(N2CCOCC2)ss1
inactive: 786-0 > 100 µM | CAKI-1 > 100 µM | HOP-62 > 100 µM | LOX IMVI 88.7 µM | MOLT-4 > 100 µM | NCI-H226 > 100 µM | NCI-H23 > 100 µM | NCI-H460 8.04 µM | OVCAR-5 > 100 µM | SF-539 > 100 µM | SW-620 > 100 µM | TK-10 > 100 µM | UACC-257 > 100 µM | UACC-62 8.53 µM | UO-31 > 100 µM

O=C(O)CCN(CCCCN(CCC(=O)O)CCC(=O)O)CCC(=O)O
inactive: 786-0 > 100 µM | CAKI-1 > 100 µM | HOP-62 > 100 µM | LOX IMVI > 100 µM | MOLT-4 > 100 µM | NCI-H23 > 100 µM | NCI-H460 > 100 µM | OVCAR-3 > 100 µM | OVCAR-5 > 100 µM | RPMI-8226 > 100 µM | SF-539 > 100 µM | SNB-75 > 100 µM | SW-620 > 100 µM | TK-10 > 100 µM | UACC-62 > 100 µM

[O-][S+]1[C@H](c2ccccc2)c2c(-c3ccccc3)sc(-c3ccccc3)c2[C@@H]1c1ccccc1 (some centres not stated)
inactive: 786-0 29.3 µM | CAKI-1 15.2 µM | HOP-62 > 100 µM | LOX IMVI 94.8 µM | MOLT-4 4.75 µM | NCI-H23 6.55 µM | NCI-H460 17.1 µM | OVCAR-3 > 100 µM | OVCAR-5 3.66 µM | RPMI-8226 6.04 µM | SF-539 > 100 µM | SNB-75 12.4 µM | SW-620 13.2 µM | TK-10 9.1 µM | UACC-257 > 100 µM | UACC-62 39.6 µM | UO-31 65.6 µM
